Assay results taken from ChEMBL document CHEMBL5036375, “Malaria Box-Inspired Discovery of N-Aminoalkyl-β-carboline-3-carboxamides, a Novel Orally Active Class of Antimalarials” (ACS Med Chem Lett, 2022).
Activity calls are given as the source filed them. The rule behind the calls is not given here.

What was measured:
Plasmodium falciparum [1] = assay: Antimalarial activity against synchronized Plasmodium falciparum Dd2 (MRA-150) infected in human O-postive erythrocytes assessed as reduction in parasite growth after 72 hrs by SYBR green I staining based fluorescence assay; type: functional, organism-based
Plasmodium berghei [2] = assay: Antimalarial activity against Plasmodium berghei ANKA expressing luciferase, PbGFP-Luccon infected in mouse assessed as reduction in parasitemia at 40 mg/kg, po measured after 4 days by luminescence assay; type: functional, organism-based; conditions: time 4.0 day
Plasmodium falciparum [3] = assay: Antimalarial activity against synchronized Plasmodium falciparum Dd2 (MRA-150) infected in human O-postive erythrocytes in presence of IPP assessed as reduction in parasite growth at 5 uM measured after 72 hrs by SYBR green I staining based fluorescence assay relative to control; type: functional; parameters: scale not given: the % may be the effect or the level left
[4] = Toxicity in mouse infected with Plasmodium berghei ANKA assessed as weight loss at 40 mg/kg, po measured after 4 days; type: organism-based; conditions: in vivo, 96 h, time 4 day
HEK293 = assay: Cytotoxicity against human HEK293 cells by resazurin based cell viability assay; type: functional
[5] = Stability in CD-1 mouse plasma at 1 hour by LC-MS analysis a; type: ADME, cell-free; conditions: read-out: Stability
Plasmodium falciparum [6] = assay: Antimalarial activity against Plasmodium falciparum 3D7A incubated for 48 hrs by [3H]-hypoxanthine incorporation assay; type: functional, organism-based; conditions: 3D7
[7] = molecular target: Voltage-gated inwardly rectifying potassium channel KCNH2 (Homo sapiens, UniProt Q12809); assay: Inhibition of human ERG expressed in HEK-293 cells by patch clamp method; type: cell-based, HEK293
Chain of Voltage-gated inwardly rectifying potassium channel KCNH2 (Q12809 whole entry): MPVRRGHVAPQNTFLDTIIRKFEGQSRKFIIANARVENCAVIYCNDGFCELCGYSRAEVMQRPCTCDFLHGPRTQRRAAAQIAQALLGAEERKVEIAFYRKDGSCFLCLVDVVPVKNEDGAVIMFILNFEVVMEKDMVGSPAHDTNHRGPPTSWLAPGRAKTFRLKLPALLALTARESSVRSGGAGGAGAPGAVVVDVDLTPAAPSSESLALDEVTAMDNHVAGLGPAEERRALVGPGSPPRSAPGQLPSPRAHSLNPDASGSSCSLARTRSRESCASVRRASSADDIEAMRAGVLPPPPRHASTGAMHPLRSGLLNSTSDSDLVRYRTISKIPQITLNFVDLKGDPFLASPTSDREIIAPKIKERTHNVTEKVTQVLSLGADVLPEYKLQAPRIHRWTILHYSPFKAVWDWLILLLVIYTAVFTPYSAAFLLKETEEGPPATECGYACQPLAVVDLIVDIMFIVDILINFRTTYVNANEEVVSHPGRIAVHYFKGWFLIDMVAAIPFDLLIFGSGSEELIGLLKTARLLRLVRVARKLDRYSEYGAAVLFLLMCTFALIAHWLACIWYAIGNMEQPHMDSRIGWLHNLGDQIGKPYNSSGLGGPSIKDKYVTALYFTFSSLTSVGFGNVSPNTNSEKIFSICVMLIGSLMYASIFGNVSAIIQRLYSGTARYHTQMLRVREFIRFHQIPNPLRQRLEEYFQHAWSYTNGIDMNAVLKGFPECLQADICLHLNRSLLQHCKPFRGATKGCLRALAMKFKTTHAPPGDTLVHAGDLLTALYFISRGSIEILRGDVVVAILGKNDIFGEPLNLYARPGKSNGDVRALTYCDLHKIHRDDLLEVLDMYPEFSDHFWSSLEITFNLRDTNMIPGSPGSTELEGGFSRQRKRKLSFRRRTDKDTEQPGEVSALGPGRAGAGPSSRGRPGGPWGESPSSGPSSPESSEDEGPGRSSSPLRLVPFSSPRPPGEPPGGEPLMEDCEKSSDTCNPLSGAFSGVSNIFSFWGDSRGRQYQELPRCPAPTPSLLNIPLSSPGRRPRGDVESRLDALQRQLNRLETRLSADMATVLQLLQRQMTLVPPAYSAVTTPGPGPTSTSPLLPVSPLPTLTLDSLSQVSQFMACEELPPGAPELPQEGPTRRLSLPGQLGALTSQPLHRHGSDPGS

[8] = Lipophilicity, logD of the compound between 1-octanol and PBS pH 7.4 at 10 mM by LC-MS analysis; type: physicochemical; conditions: 1-octanol/PBS
[9] = Toxicity in mouse infected with Plasmodium berghei ANKA assessed as lethargy at 40 mg/kg, po measured after 4 days; type: organism-based; conditions: in vivo, 96 h, time 4 day
Plasmodium falciparum [10] = assay: Antimalarial activity against synchronized Plasmodium falciparum Dd2 (MRA-150) infected in human O-postive erythrocytes in presence of IPP assessed as reduction in parasite growth at 2.5 uM measured after 72 hrs by SYBR green I staining based fluorescence assay relative to control; type: functional; parameters: scale not given: the % may be the effect or the level left
[11] = Toxicity in mouse infected with Plasmodium berghei ANKA assessed as behavioural changes at 40 mg/kg, po measured after 4 days; type: organism-based; conditions: in vivo, 96 h, time 4 day
[12] = Oral bioavailability in rat at 40 mg/kg; type: ADME, organism-based; conditions: in vivo
[13] = Toxicity in mouse infected with Plasmodium berghei ANKA assessed as gait at 40 mg/kg, po measured after 4 days; type: organism-based; conditions: in vivo, 96 h, time 4 day
[14] = Half life in CD-1 mouse liver microsomes after 60 mins by LC-MS analysis; type: ADME, Microsome
[15] = Thermodynamic solubility of PBS at pH 7.4 by LC-MS analysis; type: physicochemical; conditions: read-out: Therm_solubility
Plasmodium falciparum [16] = assay: Antimalarial activity against Plasmodium falciparum W2 infected in human O-postive erythrocytes measured after 72 hrs by SYBR green I staining based fluorescence assay; type: functional, organism-based; conditions: W2, 72 h
[17] = Cmax in rat at 40 mg/kg, po; type: ADME, organism-based; parameters: route oral, dose 40 mg/kg; conditions: in vivo
Plasmodium falciparum [18] = assay: Antimalarial activity against Plasmodium falciparum 4G infected in human O-postive erythrocytes measured after 72 hrs by SYBR green I staining based fluorescence assay; type: functional, organism-based
Escherichia coli = assay: Antibacterial activity against Escherichia coli (BL21) assessed as bacterial growth after 18 hrs by g a cell density meter; type: functional
[19] = Toxicity in mouse infected with Plasmodium berghei ANKA assessed as ruffled fur at 40 mg/kg, po measured after 4 days; type: organism-based; conditions: in vivo, 96 h, time 4 day
[20] = Half life in rat plasma 40 mg/kg, po; type: ADME, organism-based
Plasmodium falciparum [21] = assay: Antimalarial activity against Plasmodium falciparum 3D7 (MRA-102) incubated for 72 hrs by Lactate dehydrogenase activity; type: functional, organism-based; conditions: 3D7 MRA-102, 72 h
Plasmodium falciparum [22] = assay: Antimalarial activity against Plasmodium falciparum 3D7 (MRA-102) infected in human O-postive erythrocytes measured after 72 hrs by SYBR green I staining based fluorescence assay; type: functional, organism-based; conditions: 3D7 MRA-102, 72 h
Plasmodium berghei [23] = assay: Antimalarial activity against Plasmodium berghei ANKA expressing luciferase, PbGFP-Luccon infected in mouse assessed as reduction in parasitemia at 20 mg/kg, po measured after 4 days by luminescence assay; type: functional, organism-based; conditions: time 4.0 day
[24] = Volume of distribution in rat at 10 mg/kg , iv; type: ADME, organism-based; conditions: in vivo
Plasmodium falciparum [25] = assay: Antimalarial activity against KAE609 resistant Plasmodium falciparum Dd2 infected in human O-postive erythrocytes measured after 72 hrs by SYBR green I staining based fluorescence assay; type: functional, organism-based; conditions: Dd2, 72 h
Hepatocyte = assay: Cytotoxicity against human hepatocytes measured after 96 hrs by DAPI staining based fluroscence assay; type: functional

Question: Which EC50 (Plasmodium falciparum [1]) does the source give for Cc1cccc2c1[nH]c1c(-c3ccc(Cl)c(Cl)c3)nc(C(=O)NCCO)cc12 here?
Answer: The EC50 was 3270 nM.

Question: With CCN(CC)CCCC(C)Nc1ccnc2cc(Cl)ccc12 (configuration not stated) as the molecule, how does the Activity (Plasmodium berghei [2]) read?
Answer: Its Activity is “Active”.

Question: With CNCCNC(=O)c1cc2c([nH]c3c(C)cccc32)c(-c2cccc(Cl)c2)n1 as the molecule, how does the EC50 (Plasmodium falciparum [1]) read?
Answer: Its EC50 is 342 nM.

Question: For CNCCNC(=O)c1cc2c([nH]c3ccccc32)c(-c2ccc(Cl)c(Cl)c2)n1, which EC50 (Plasmodium falciparum [1]) is on record?
Answer: The EC50 was 277 nM.

Question: For CNCCNC(=O)[C@@H]1Cc2c([nH]c3c(C)cccc23)[C@@H](c2ccc(Cl)cc2Cl)N1, which Activity (Plasmodium falciparum [3]) is on record?
Answer: The Activity was 50%.

Question: What about the EC50 (Plasmodium falciparum [1]) of the same molecule?
Answer: The EC50 was 1950 nM.

Question: Which EC50 (Plasmodium falciparum [1]) does the source give for Cc1cccc2c1[nH]c1c(-c3ccc(Cl)c(Cl)c3)nc(C(=O)NCCN)cc12 here?
Answer: The EC50 was 263 nM.

Question: With CNCCNC(=O)[C@@H]1Cc2c([nH]c3c(C)cccc23)[C@H](c2ccc(Cl)cc2Cl)N1 as the molecule, how does the EC50 (Plasmodium falciparum [1]) read?
Answer: Its EC50 is 1300 nM.

Question: For CNCCNC(=O)c1cc2c([nH]c3ccccc32)c(-c2ccc(Cl)cc2)n1, which EC50 (Plasmodium falciparum [1]) is on record?
Answer: The EC50 was 496 nM.

Question: For CNC(=O)c1cc2c([nH]c3c(C)cccc32)c(-c2ccc(Cl)c(Cl)c2)n1, which EC50 (Plasmodium falciparum [1]) is on record?
Answer: The EC50 was greater than 10000 nM.

Question: With Cc1cccc2c1[nH]c1c(-c3ccc(Cl)c(Cl)c3)nc(C(=O)NCCCN)cc12 as the molecule, how does the EC50 (Plasmodium falciparum [1]) read?
Answer: The EC50 was 726 nM.

Question: For Cc1cccc2c1[nH]c1c(-c3ccc(Cl)c(Cl)c3)nc(C(=O)O)cc12, which EC50 (Plasmodium falciparum [1]) is on record?
Answer: Its EC50 is greater than 10000 nM.

Question: For CNCCNC(=O)c1cc2c([nH]c3c(C)cccc32)c(-c2ccccc2)n1, which EC50 (Plasmodium falciparum [1]) is on record?
Answer: The EC50 was 4000 nM.

Question: Which EC50 (Plasmodium falciparum [1]) does the source give for CNCCNC(=O)c1cc2c([nH]c3ccccc32)c(-c2ccccc2)n1 here?
Answer: Its EC50 is 2500 nM.

Question: With CNCCNC(=O)c1cc2c([nH]c3ccccc32)c(-c2cccc(Cl)c2)n1 as the molecule, how does the EC50 (Plasmodium falciparum [1]) read?
Answer: Its EC50 is 641 nM.

Question: For COC(=O)c1cc2c([nH]c3c(C)cccc32)c(-c2ccc(Cl)c(Cl)c2)n1, which EC50 (Plasmodium falciparum [1]) is on record?
Answer: Its EC50 is greater than 10000 nM.

Question: With CNCCNC(=O)c1cc2c([nH]c3c(C)cccc32)c(-c2ccc(Cl)cc2)n1 as the molecule, how does the EC50 (Plasmodium falciparum [1]) read?
Answer: The EC50 was 274 nM.

Question: For CNCCNC(=O)[C@H]1Cc2c([nH]c3c(C)cccc23)[C@@H](c2ccc(Cl)cc2Cl)N1, which EC50 (Plasmodium falciparum [1]) is on record?
Answer: The EC50 was 1430 nM.

Question: For CCCCNC(=O)c1cc2c([nH]c3c(C)cccc32)c(-c2ccc(Cl)c(Cl)c2)n1, which EC50 (Plasmodium falciparum [1]) is on record?
Answer: The EC50 was 1020 nM.

Question: For CNCCNC(=O)[C@H]1Cc2c([nH]c3c(C)cccc23)[C@H](c2ccc(Cl)cc2Cl)N1, which EC50 (Plasmodium falciparum [1]) is on record?
Answer: The EC50 was 3690 nM.

Question: With Cc1cccc2c1[nH]c1c(-c3ccc(Cl)c(Cl)c3)nc(C(=O)NCCCN(C)C)cc12 as the molecule, how does the EC50 (Plasmodium falciparum [1]) read?
Answer: Its EC50 is 240 nM.

Question: For CNCCCNC(=O)c1cc2c([nH]c3c(C)cccc32)c(-c2ccc(Cl)c(Cl)c2)n1, which EC50 (Plasmodium falciparum [1]) is on record?
Answer: The EC50 was 217 nM.

Question: With CNCCNC(=O)c1cc2c([nH]c3c(C)cccc32)c(-c2ccc(Cl)cc2Cl)n1 as the molecule, how does the EC50 (Plasmodium falciparum [1]) read?
Answer: Its EC50 is 583 nM.

Question: Which Activity [4] does the source give for CNCCNC(=O)c1cc2c([nH]c3c(C)cccc32)c(-c2ccc(Cl)c(Cl)c2)n1.Cl here?
Answer: Its Activity is “Non-Toxic”.

Question: What about the CC50 (HEK293) of the same molecule?
Answer: The CC50 was 32000 nM.

Question: What about the remaining at 1 h [5] of the same molecule?
Answer: Its remaining at 1 h is 100%.

Question: And the IC50 (Plasmodium falciparum [6])?
Answer: Its IC50 is 70 nM.

Question: And the IC50 [7]?
Answer: The IC50 was 510 nM.

Question: And the logD at 10000 µM [8]?
Answer: Its logD at 10000 µM is 3.3.

Question: What about the Activity [9] of the same molecule?
Answer: Its Activity is “Non-Toxic”.

Question: And the Activity (Plasmodium falciparum [10])?
Answer: Its Activity is 0%.

Question: And the Activity [11]?
Answer: Its Activity is “Non-Toxic”.

Question: What about the bioavailability [12] of the same molecule?
Answer: Its bioavailability is 40%.

Question: What about the Activity [13] of the same molecule?
Answer: The Activity was “Non-Toxic”.

Question: And the half-life [14]?
Answer: The half-life was 1.83 h.

Question: What about the solubility thermodynamic [15] of the same molecule?
Answer: Its solubility thermodynamic is 9.5 µM.

Question: What about the EC50 (Plasmodium falciparum [16]) of the same molecule?
Answer: The EC50 was 100 nM.

Question: And the Cmax [17]?
Answer: The Cmax was 800 nM.

Question: What about the EC50 (Plasmodium falciparum [1]) of the same molecule?
Answer: The EC50 was 108 nM.

Question: What about the Activity (Plasmodium berghei [2]) of the same molecule?
Answer: The Activity was “Active”.

Question: What about the EC50 (Plasmodium falciparum [18]) of the same molecule?
Answer: The EC50 was 110 nM.

Question: What about the MIC (Escherichia coli) of the same molecule?
Answer: The MIC was greater than 250 µM.

Question: And the Activity [19]?
Answer: Its Activity is “Non-Toxic”.

Question: And the half-life [20]?
Answer: The half-life was 8 h.

Question: What about the IC50 (Plasmodium falciparum [21]) of the same molecule?
Answer: The IC50 was 117 nM.

Question: And the EC50 (Plasmodium falciparum [22])?
Answer: The EC50 was 53 nM.

Question: What about the Activity (Plasmodium berghei [23]) of the same molecule?
Answer: Its Activity is “inactive”.

Question: What about the Vd [24] of the same molecule?
Answer: Its Vd is 21.8 L/kg.

Question: What about the EC50 (Plasmodium falciparum [25]) of the same molecule?
Answer: The EC50 was 101 nM.

Question: What about the CC50 (Hepatocyte) of the same molecule?
Answer: Its CC50 is 8500 nM.

Question: Which EC50 (Plasmodium falciparum [1]) does the source give for Cc1cccc2c1[nH]c1c(-c3ccc(Cl)c(Cl)c3)nc(C(=O)NCCN(C)C)cc12 here?
Answer: Its EC50 is 264 nM.

Question: For O=C(O)[C@@H]1Cc2c([nH]c3ccccc23)[C@@H](c2ccc(Cl)cc2Cl)N1, which Activity (Plasmodium falciparum [10]) is on record?
Answer: The Activity was 100%.
